Data reported in the NIST ThermoML archive (doi:10.1021/acs.jced.9b00752).
Where “and” joins values, the source holds several entries; their conditions need not be identical. Equal values may be shown once. ± gives the expanded uncertainty stated by the source.

Assay: mn = molality of the nth substance listed, in mol/kg
Conditions: 100 kPa, Liquid, Vibrating tube method

N[C@@H](Cc1ccc(O)cc1)C(=O)O [3-(p-hydroxyphenyl)-L-alanine] + O
mass density
Conditions	273.65 K	274.15 K	274.65 K	275.15 K	275.65 K	276.15 K	276.65 K	277.15 K	277.65 K	278.15 K
m1 = 0.0005	999.883 ± 0.1 kg/m3	999.909 ± 0.1 kg/m3	999.932 ± 0.1 kg/m3	999.95 ± 0.1 kg/m3	999.963 ± 0.1 kg/m3	999.972 ± 0.1 kg/m3	999.98 ± 0.1 kg/m3	999.979 ± 0.1 kg/m3	999.978 ± 0.1 kg/m3	999.972 ± 0.1 kg/m3
m1 = 0.001	999.917 ± 0.1 kg/m3	999.942 ± 0.1 kg/m3	999.965 ± 0.1 kg/m3	999.984 ± 0.1 kg/m3	999.997 ± 0.1 kg/m3	1000 ± 0.1 kg/m3	1000.01 ± 0.1 kg/m3	1000.01 ± 0.1 kg/m3	1000.01 ± 0.1 kg/m3	1000 ± 0.1 kg/m3
m1 = 0.0011	999.943 ± 0.1 kg/m3	999.97 ± 0.1 kg/m3	999.993 ± 0.1 kg/m3	1000.01 ± 0.1 kg/m3	1000.02 ± 0.1 kg/m3	1000.03 ± 0.1 kg/m3	1000.04 ± 0.1 kg/m3	1000.04 ± 0.1 kg/m3	1000.04 ± 0.1 kg/m3	1000.03 ± 0.1 kg/m3
m1 = 0.0022	1000.01 ± 0.1 kg/m3	1000.04 ± 0.1 kg/m3	1000.06 ± 0.1 kg/m3	1000.08 ± 0.1 kg/m3	1000.09 ± 0.1 kg/m3	1000.1 ± 0.1 kg/m3	1000.11 ± 0.1 kg/m3	1000.11 ± 0.1 kg/m3	1000.11 ± 0.1 kg/m3	1000.1 ± 0.1 kg/m3
m1 = 0.0026	1000.03 ± 0.1 kg/m3	1000.06 ± 0.1 kg/m3	1000.08 ± 0.1 kg/m3	1000.1 ± 0.1 kg/m3	1000.11 ± 0.1 kg/m3	1000.12 ± 0.1 kg/m3	1000.13 ± 0.1 kg/m3	1000.13 ± 0.1 kg/m3	1000.13 ± 0.1 kg/m3	1000.12 ± 0.1 kg/m3
m1 = 0.0035	1000.1 ± 0.1 kg/m3	1000.13 ± 0.1 kg/m3	1000.15 ± 0.1 kg/m3	1000.17 ± 0.1 kg/m3	1000.18 ± 0.1 kg/m3	1000.19 ± 0.1 kg/m3	1000.19 ± 0.1 kg/m3	1000.2 ± 0.1 kg/m3	1000.19 ± 0.1 kg/m3	1000.19 ± 0.1 kg/m3
m1 = 0.0036	1000.1 ± 0.1 kg/m3	1000.13 ± 0.1 kg/m3	1000.15 ± 0.1 kg/m3	1000.17 ± 0.1 kg/m3	1000.18 ± 0.1 kg/m3	1000.19 ± 0.1 kg/m3	1000.2 ± 0.1 kg/m3	1000.2 ± 0.1 kg/m3	1000.19 ± 0.1 kg/m3	1000.19 ± 0.1 kg/m3
m1 = 0.0038	1000.11 ± 0.1 kg/m3	1000.13 ± 0.1 kg/m3	1000.15 ± 0.1 kg/m3	1000.17 ± 0.1 kg/m3	1000.18 ± 0.1 kg/m3	1000.19 ± 0.1 kg/m3	1000.2 ± 0.1 kg/m3	1000.2 ± 0.1 kg/m3	1000.2 ± 0.1 kg/m3	1000.19 ± 0.1 kg/m3
m1 = 0.0045	1000.16 ± 0.1 kg/m3 and 1000.17 ± 0.1 kg/m3	1000.18 ± 0.1 kg/m3 and 1000.2 ± 0.1 kg/m3	1000.21 ± 0.1 kg/m3 and 1000.22 ± 0.1 kg/m3	1000.23 ± 0.1 kg/m3 and 1000.24 ± 0.1 kg/m3	1000.24 ± 0.1 kg/m3 and 1000.25 ± 0.1 kg/m3	1000.25 ± 0.1 kg/m3	1000.25 ± 0.1 kg/m3 and 1000.26 ± 0.1 kg/m3	1000.25 ± 0.1 kg/m3 and 1000.26 ± 0.1 kg/m3	1000.25 ± 0.1 kg/m3 and 1000.26 ± 0.1 kg/m3	1000.24 ± 0.1 kg/m3 and 1000.25 ± 0.1 kg/m3
m1 = 0.0047	1000.16 ± 0.1 kg/m3	1000.19 ± 0.1 kg/m3	1000.21 ± 0.1 kg/m3	1000.23 ± 0.1 kg/m3	1000.24 ± 0.1 kg/m3	1000.25 ± 0.1 kg/m3	1000.26 ± 0.1 kg/m3	1000.26 ± 0.1 kg/m3	1000.25 ± 0.1 kg/m3	1000.25 ± 0.1 kg/m3
m1 = 0.0053	1000.21 ± 0.1 kg/m3 and 1000.22 ± 0.1 kg/m3	1000.23 ± 0.1 kg/m3 and 1000.25 ± 0.1 kg/m3	1000.26 ± 0.1 kg/m3 and 1000.27 ± 0.1 kg/m3	1000.27 ± 0.1 kg/m3 and 1000.28 ± 0.1 kg/m3	1000.29 ± 0.1 kg/m3 and 1000.3 ± 0.1 kg/m3	1000.29 ± 0.1 kg/m3 and 1000.31 ± 0.1 kg/m3	1000.3 ± 0.1 kg/m3 and 1000.31 ± 0.1 kg/m3	1000.3 ± 0.1 kg/m3 and 1000.31 ± 0.1 kg/m3	1000.3 ± 0.1 kg/m3 and 1000.31 ± 0.1 kg/m3	1000.29 ± 0.1 kg/m3 and 1000.3 ± 0.1 kg/m3
m1 = 0.0055	1000.21 ± 0.1 kg/m3	1000.23 ± 0.1 kg/m3	1000.25 ± 0.1 kg/m3	1000.27 ± 0.1 kg/m3	1000.29 ± 0.1 kg/m3	1000.29 ± 0.1 kg/m3	1000.3 ± 0.1 kg/m3	1000.3 ± 0.1 kg/m3	1000.3 ± 0.1 kg/m3	1000.29 ± 0.1 kg/m3
